In patent US8993632B2, “Inhibitors of the 11-beta-hydroxysteroid dehydrogenase type 1 enzyme” (AbbVie Inc., priority 2005, dated 2015):

Assays:
[1] = biological target: T1, human 11-β-HSD-2 (Homo sapiens, UniProt P80365); assay: 11β-HSD-2 Scintillation Proximity Assay (tritiated cortisol, NAD+); assay type: biochemical; conditions: human enzyme, SPA
T1 sequence (P80365 1-405): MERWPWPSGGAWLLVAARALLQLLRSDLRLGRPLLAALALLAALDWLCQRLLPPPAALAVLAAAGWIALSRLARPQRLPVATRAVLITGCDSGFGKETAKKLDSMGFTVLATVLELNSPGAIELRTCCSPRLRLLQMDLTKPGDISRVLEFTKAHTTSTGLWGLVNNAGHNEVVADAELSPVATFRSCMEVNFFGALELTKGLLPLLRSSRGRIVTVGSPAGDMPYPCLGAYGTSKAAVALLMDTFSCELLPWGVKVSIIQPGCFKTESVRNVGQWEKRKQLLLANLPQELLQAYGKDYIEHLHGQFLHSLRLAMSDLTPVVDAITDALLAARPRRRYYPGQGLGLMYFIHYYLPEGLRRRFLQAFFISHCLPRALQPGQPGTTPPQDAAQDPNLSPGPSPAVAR
Method: (§1) The reaction was stopped by adding a non-specific 11β-HSD inhibitor, 18β-glycyrrhetinic acid. The tritiated cortisol was captured by a mixture of an anti-cortisol monoclonal antibody and SPA beads coated with anti-mouse antibodies. The reaction plate was shaken at room temperature and the radioactivity bound to SPA beads was then measured on a β-scintillation counter. The 11-βHSD-1 assay was carried out in 96-well microtiter plates in a total volume of 220 μl. […] In order to drive the reaction in the forward direction, 1 mM G-6-P was also added. Solid compound was dissolved in DMSO to make a 10 mM stock followed by a subsequent 10-fold dilution with 3% DMSO in Tris/EDTA buffer (pH 7.4). […] Reactions were initiated by the addition of 10 μl of 0.1 mg/ml E. coli lysates overexpressing 11β-HSD-1 enzyme. After shaking and incubating plates for 30 minutes at room temperature, reactions were stopped by adding 10 μl of 1 mM glycyrrhetinic acid. The product, tritiated cortisol, was captured by adding 10 μl of […] monoclonal anti-cortisol antibodies and 100 μl SPA beads coated with anti-mouse antibodies. After shaking for 30 minutes, plates were read on a liquid scintillation counter Topcount. Percent inhibition was calculated based on the background and the maximal signal. Wells that contained substrate without compound or enzyme were used as the background, while the wells that contained substrate and enzyme without any compound were considered as maximal signal. Percent of inhibition of each compound was calculated relative to the maximal signal and IC50 curves were generated. This assay was applied to 11β-HSD-2 as well, whereby tritiated cortisol and NAD^+ were used as substrate and cofactor, respectively.

[2] = biological target: T2, truncated human 11β-HSD-1 enzyme (24-287AA) (Homo sapiens, UniProt P28845); assay: 11β-HSD-1 enzymatic Scintillation Proximity Assay (SPA); assay type: biochemical
T2 construct: truncated human 11β-HSD-1 enzyme (24-287AA); made in house; host or cells: E. coli (crude lysate)
Method: as §1

T2 sequence (P28845 24-287): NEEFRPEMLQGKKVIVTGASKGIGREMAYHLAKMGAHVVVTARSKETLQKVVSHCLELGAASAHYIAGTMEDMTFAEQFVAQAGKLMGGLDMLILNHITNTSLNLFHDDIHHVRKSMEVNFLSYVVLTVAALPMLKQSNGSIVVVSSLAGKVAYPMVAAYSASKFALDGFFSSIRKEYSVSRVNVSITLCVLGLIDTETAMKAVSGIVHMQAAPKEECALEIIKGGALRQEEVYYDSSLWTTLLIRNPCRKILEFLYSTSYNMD

SMILES	IC50 [1] [nM]	IC50 [2] [nM]
NC(=O)[C@]12C[C@@H]3C[C@H](C1)[C@@H](NC(=O)C1(c4ccc(Cl)cc4)CCCCC1)[C@@H](C3)C2 [G, E-4-({[1-(4-chlorophenyl)cyclohexyl]carbonyl}amino)adamantane-1-carboxamide]	7400	59
CC(C)(C(=O)N[C@@H]1[C@@H]2C[C@@H]3C[C@H]1C[C@@](C(N)=O)(C3)C2)c1ccc(Cl)cc1 [J, E-4-{[2-(4-chlorophenyl)-2-methylpropanoyl]amino}adamantane-1-carboxamide]	–	33
CC(C)(C(=O)N[C@@H]1[C@@H]2C[C@@H]3C[C@H]1C[C@@](C(=O)NCc1ccc(C(=O)O)cc1)(C3)C2)c1cccs1 [JJ, 4-{[({(E)-4-[(2-methyl-2-thien-2-ylpropanoyl)amino]-1-adamantyl}carbonyl)amino]methyl}benzoic acid]	60000	95
Cc1noc(C)c1-c1ccc(C(C)(C)C(=O)N[C@@H]2[C@@H]3C[C@@H]4C[C@H]2C[C@@](C(N)=O)(C4)C3)cc1 [HH, E-4-({2-[4-(3,5-dimethylisoxazol-4-yl)phenyl]-2-methylpropanoyl}amino)adamantane-1-carboxamide]	40000	44
NC(=O)[C@]12C[C@@H]3C[C@H](C1)[C@@H](NC(=O)C1(c4ccc(Cl)cc4)CCCC1)[C@@H](C3)C2 [I, E-4-({[1-(4-chlorophenyl)cyclopentyl]carbonyl}amino)adamantane-1-carboxamide]	12000	–
NC(=O)[C@]12C[C@@H]3C[C@H](C1)[C@@H](NC(=O)C1(c4ccc(F)cc4Cl)CCCC1)[C@@H](C3)C2 [Compound M, E-4-({[1-(2-chloro-4-fluorophenyl)cyclopentyl]carbonyl}amino)adamantane-1-carboxamide]	> 30000	30
CC(C)(C(=O)N[C@@H]1[C@@H]2C[C@@H]3C[C@H]1C[C@@](C(N)=O)(C3)C2)c1ccc(-c2ccncc2)cc1 [Compound T, E-4-{[2-methyl-2-(4-pyridin-4-ylphenyl)propanoyl]amino}adamantane-1-carboxamide]	> 30000	31
Cn1cc(-c2ccc(C(C)(C)C(=O)N[C@@H]3[C@@H]4C[C@@H]5C[C@H]3C[C@@](C(N)=O)(C5)C4)cc2)cn1 [FF, E-4-({2-methyl-2-[4-(1-methyl-1H-pyrazol-4-yl)phenyl]propanoyl}amino)adamantane-1-carboxamide]	> 100000	28
CC(C)(C(=O)N[C@@H]1[C@@H]2C[C@@H]3C[C@H]1C[C@@](C(N)=O)(C3)C2)c1ccc(-c2cccnc2)cc1 [II, E-4-{[2-methyl-2-(4-pyridin-3-ylphenyl)propanoyl]amino}adamantane-1-carboxamide]	44000	–
CC(C)(C(=O)N[C@@H]1[C@@H]2C[C@@H]3C[C@H]1C[C@@](C(N)=O)(C3)C2)c1ccc(C(F)(F)F)cn1 [W, E-4-({2-methyl-2-[5-(trifluoromethyl)pyridin-2-yl]propanoyl}amino)adamantane-1-carboxamide]	> 30000	23
CC(C)(C(=O)N[C@@H]1[C@@H]2C[C@@H]3C[C@H]1C[C@@](C(N)=O)(C3)C2)c1ccc(Br)cc1 [Z, E-4-{[2-(4-bromophenyl)-2-methylpropanoyl]amino}adamantane-1-carboxamide]	23000	21
NC(=O)[C@]12C[C@@H]3C[C@H](C1)[C@@H](NC(=O)C1(c4ccc(F)cc4)CCCC1)[C@@H](C3)C2 [N, E-4-({[1-(4-fluorophenyl)cyclopentyl]carbonyl}amino)adamantane-1-carboxamide]	> 30000	31
Cc1ccccc1CN1CCC(C)(C(=O)N[C@@H]2[C@@H]3C[C@@H]4C[C@H]2C[C@@](C(N)=O)(C4)C3)C1=O (stereo partly drawn) [CC]	12000	23
COc1ccc(C2(C(=O)N[C@@H]3[C@@H]4C[C@@H]5C[C@H]3C[C@@](C(N)=O)(C5)C4)CCCC2)cc1 [Y, E-4-({[1-(4-methoxyphenyl)cyclopentyl]carbonyl}amino)adamantane-1-carboxamide]	13000	18
NC(=O)[C@]12C[C@@H]3C[C@H](C1)[C@@H](NC(=O)C1(c4ccc(Cl)cc4)CC1)[C@@H](C3)C2 [H, E-4-({[1-(4-chlorophenyl)cyclopropyl]carbonyl}amino)adamantane-1-carboxamide]	> 30000	33
NC(=O)[C@]12C[C@@H]3C[C@H](C1)[C@@H](NC(=O)C1(c4cccc(F)c4)CCCC1)[C@@H](C3)C2 [Compound L, E-4-({[1-(3-fluorophenyl)cyclopentyl]carbonyl}amino)adamantane-1-carboxamide]	16000	25
CC(C)(C(=O)N[C@@H]1[C@@H]2C[C@@H]3C[C@H]1C[C@@](C(N)=O)(C3)C2)c1ccsc1 [V, E-4-[(2-methyl-2-thien-3-ylpropanoyl)amino]adamantane-1-carboxamide]	15000	19
CC(C)(C(=O)N[C@@H]1[C@@H]2C[C@@H]3C[C@H]1C[C@@](C(N)=O)(C3)C2)c1ccc(-c2ccc(C(F)(F)F)cn2)cc1 [X, E-4-[(2-methyl-2-{4-[5-(trifluoromethyl)pyridin-2 yl]phenyl}propanoyl)amino]adamantane-1-carboxamide]	> 30000	104
CC1(C(=O)N[C@@H]2[C@@H]3C[C@@H]4C[C@H]2C[C@@](C(N)=O)(C4)C3)CCCCC1 [P, E-4-{[(1-methylcyclohexyl)carbonyl]amino}adamantane-1-carboxamide]	> 30000	38
COc1ccc(C2(C(=O)N[C@@H]3[C@@H]4C[C@@H]5C[C@H]3C[C@@](C(N)=O)(C5)C4)CC2)cc1 [R, E-4-({[1-(4-methoxyphenyl)cyclopropyl]carbonyl}amino)adamantane-1-carboxamide]	21000	27
CC(C)(C(=O)N[C@@H]1[C@@H]2C[C@@H]3C[C@H]1C[C@@](C(N)=O)(C3)C2)c1cccc(Br)c1 [GG, E-4-{[2-(3-bromophenyl)-2-methylpropanoyl]amino}adamantane-1-carboxamide]	9300	17
Cc1ccc(C2(C(=O)N[C@@H]3[C@@H]4C[C@@H]5C[C@H]3C[C@@](C(N)=O)(C5)C4)CC2)cc1 [S, E-4-({[1-(4-methylphenyl)cyclopropyl]carbonyl}amino)adamantane-1-carboxamide]	15000	37
NC(=O)[C@]12C[C@@H]3C[C@H](C1)[C@@H](NC(=O)C1(c4ccc(Cl)cc4Cl)CC1)[C@@H](C3)C2 [Q, E-4-({[1-(2,4-dichlorophenyl)cyclopropyl]carbonyl}amino)adamantane-1-carboxamide]	16000	36
CC(C)(C(=O)N[C@@H]1[C@@H]2C[C@@H]3C[C@H]1C[C@@](C(N)=O)(C3)C2)c1cccs1 [U, E-4-[(2-methyl-2-thien-2-ylpropanoyl)amino]adamantane-1-carboxamide]	12000	16
NC(=O)[C@]12C[C@@H]3C[C@H](C1)[C@@H](NC(=O)C1(c4ccccc4)CCCC1)[C@@H](C3)C2 [Compound K, E-4-{[(1-phenylcyclopentyl)carbonyl]amino}adamantane-1-carboxamide]	16000	43
NC(=O)[C@]12C[C@@H]3C[C@H](C1)[C@@H](NC(=O)C1(c4ccccc4F)CCCC1)[C@@H](C3)C2 [O, E-4-({[1-(2-fluorophenyl)cyclopentyl]carbonyl}amino)adamantane-1-carboxamide]	16000	38
CC1(C(=O)N[C@@H]2[C@@H]3C[C@@H]4C[C@H]2C[C@@](C(N)=O)(C4)C3)CCN(Cc2ccccc2Cl)C1=O (stereo partly drawn) [DD]	6300	23
